{"source": "paper PMC4050194", "about": "(FEBS Open Bio, 2014)", "biological_target": "T1, Cra (FruR) protein of Pseudomonas putida (Cra^PP) (Pseudomonas putida, UniProt Q88PQ6)", "T1 sequence (Q88PQ6 1-331)": "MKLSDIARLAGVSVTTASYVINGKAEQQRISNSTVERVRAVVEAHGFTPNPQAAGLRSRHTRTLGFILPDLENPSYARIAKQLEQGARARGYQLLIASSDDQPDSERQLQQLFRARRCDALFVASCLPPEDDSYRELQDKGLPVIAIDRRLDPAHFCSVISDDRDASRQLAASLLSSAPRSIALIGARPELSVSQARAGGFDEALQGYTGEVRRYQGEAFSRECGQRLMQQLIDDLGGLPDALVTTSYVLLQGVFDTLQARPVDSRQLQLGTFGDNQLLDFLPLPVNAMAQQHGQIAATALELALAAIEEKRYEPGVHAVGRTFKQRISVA", "assay": "ITC with purified Cra", "format": "binding"}
{"smiles": "O=P(O)(O)OCC1(O)O[C@H](CO)[C@@H](O)[C@@H]1O", "note": "(stereo partly shown) [F1P, fructose 1-phosphate]", "values": [{"measurement": "Kd", "result": "~200", "unit": "nM"}]}
